Test results taken from patent US20250145600A1, “2-((4-((S)-2-(4-CHLORO-2-FLUOROPHENYL)-2-METHYLBENZO[D][1,3]DIOXOL-4-YL)PIPERIDIN-1-YL)METHYL)-1-(((S)-OXETAN-2-YL)METHYL)-1H-IMIDAZOLE DERIVATIVES AS ACTIVATORS OF THE GLP1 RECEPTOR FOR THE TREATMENT OF OBESITY” (Novartis AG, priority 2022, published 2025).
pEC50: −log10 of the molar value.

Target: human GLP1R (Homo sapiens, UniProt P43220)
Experiment: Human GLP1R DERET internalization assay
Format: cell-based
Conditions: HEK293-SNAP-hGLP1R-GloSensor cells
Protocol: Compounds of formula (I) according to the invention were tested in the following cellular assays that measure the intracellular cAMP concentration, beta-arrestin recruitment and receptor internalization. The cAMP is generated by the activation of GLP1R. The extent to which the GLP1R is internalized into the cell and away from the plasma membrane following activation is also shown in Table 2. EC50 for each assay is defined as the concentration of the compound that leads to half of the maximum response (after baseline correction). Emax is defined as the maximum response observed for the test compound, normalized to the maximum response observed for the endogenous ligand (GLP1(7-36)) to GLP1R.
Human GLP1R DERET Internalization Assay
The extent to which agonists internalize the human GLP1R was determined based on an optimized version of a RealTime FRET-based ‘DERET’ (Dissociation Enhanced Resonance Energy Transfer) assay. The technology relies on labeling of the SNAP-tagged GPCR with a SNAP-Lumi-Terbium (donor fluorophore, Cisbio, cat #SSNPTBD). The compounds are incubated with the cells over-expressing the GPCR of interest in the presence of an excess of fluorescein (acceptor fluorophore). When the GPCR is on the cell surface, the donor signal is quenched by the acceptor and the donor/acceptor ratio is low. As the GPCR internalizes, the donor signal is no longer quenched, and the acceptor is no longer excited so the donor/acceptor ratio increases.
HEK293-SNAP-hGLP1R-GloSensor cells (stably overexpressing SNAP-tagged hGLP1R) were seeded overnight in white 384-well poly-D-Lysine coated plates (Greiner Bio One, cat #781945) in regular DMEM growth medium (Gibco, cat #11965-092, 10% heat-inactivated FBS, 10 mM HEPES, 1× penicillin/streptomycin, 0.5 mg/mL geneticin (Gibco, cat #10131-035) and 0.25 mg/mL hygromycin B (Invitrogen, cat #10687010). On the assay day, cell medium was removed and 100 nM SNAP-Lumi-Tb reagent was added in Opti-MEM solution. The cells were incubated at 37° C. for 1 h. Cells were washed using a plate washer in assay buffer [1×HBSS (10× Gibco, cat #14065-056), 20 mM Hepes (Gibco, cat #15630-080), 1 mM CaCl2 (Fluka, cat #21114-1L), 1 mM MgCl2 (Ambion, cat #AM9530G) pH7.4], and 20 μL buffer with 0.1% BSA was added to each well. After leaving cells to equilibrate for […] at 37° C., 10 μL of Fluorescein (sodium salt, Sigma, cat #F6377, diluted in buffer) was added at 25 μM final concentration. To generate triplicate dose response curves, compounds were serially diluted 3-fold in assay buffer, then added to the cell assay plate to a final volume of 40 μL and final top concentrations starting at 30 μM. In the same plate and assay buffer as the tested compounds, a GLP1 (7-36) peptide (Bachem, cat #H-6795) control curve was included at a final top concentration of 1 μM in order to establish EC100. EC0 wells with buffer only were also included. The plate FRET fluorescence was measured immediately using a Perkin Elmer Envision with LANCE/DELFIA D400 single mirror, excitation filter X320, and emission filters M615_203 (donor emission) and M515 (acceptor emission), and then measured every 30 min. […] Plates were kept at 37° C. between reads. Data was expressed as the ratio of donor/acceptor emissions using Microsoft Excel and plotted in GraphPad Prism. In order to determine EC50 and Emax for internalization, data was calculated and expressed as percent of the GLP1 (7-36) EC100 control wells: [(sample signal−mean EC0 signal)/(mean EC100 of GLP1 (7-36) signal−mean EC0 signal)]*100 using Microsoft Excel. Curve fitting for EC50 determinations was performed using GraphPad Prism. The 4-parameter logistic model, Hill slope was used:
where Y is the functional response; X is the compound concentration; bottom is A0 or the minimum value (at 0 dose); top is Ainf or the maximum value (at infinite dose); EC50 is the point of inflection (i.e. the point on the sigmoid shaped curve halfway between A0 and Ainf). […]

Chain of human GLP1R (P43220 24-463): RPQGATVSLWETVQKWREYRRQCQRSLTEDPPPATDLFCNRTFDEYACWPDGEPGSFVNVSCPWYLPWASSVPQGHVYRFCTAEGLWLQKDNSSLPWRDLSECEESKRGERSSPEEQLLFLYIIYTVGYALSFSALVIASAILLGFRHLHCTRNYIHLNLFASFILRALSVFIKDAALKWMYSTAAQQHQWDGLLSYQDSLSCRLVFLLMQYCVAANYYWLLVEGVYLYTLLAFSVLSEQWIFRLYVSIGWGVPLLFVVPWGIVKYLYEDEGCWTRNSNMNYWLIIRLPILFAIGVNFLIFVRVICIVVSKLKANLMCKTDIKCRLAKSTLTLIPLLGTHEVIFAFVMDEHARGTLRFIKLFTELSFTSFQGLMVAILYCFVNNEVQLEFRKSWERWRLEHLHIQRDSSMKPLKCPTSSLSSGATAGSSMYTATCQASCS

In the case of Cc1nc(CN2CCC(c3cccc4c3O[C@@](C)(c3ccc(Cl)cc3F)O4)CC2)n(C[C@@H]2CCO2)c1-c1nc(C(=O)O)c(C)o1 [Compound C-1, 2-(2-((4-((S)-2-(4-chloro-2-fluorophenyl)-2-methylbenzo[d][1,3]dioxol-4-yl)piperidin-1-yl)methyl)-4-methyl-1-(((S)-oxetan-2-yl)methyl)-1H-imidazol-5-yl)-5-methyloxazole-4-carboxylic acid], the pEC50 (top concentration 30 μM) was less than 4.52 and the Emax (relative to GLP1(7-36)) was 8%.
